Measurements as given in US20110097385A1, “Delivery System for Drug and Cell Therapy” (TTDC BIO L.P., priority 2003, published 2011).

What was measured:
[1] = system: humans; conditions: in humans, company information (Novo Nordisk); cited from earlier work
[2] = system: Chinchilla rabbits; experiment: Blood glucose and duration of efficacy in rabbits after subcutaneous insulin formulations; conditions: rabbit, 8 UI subcutaneously
Experimental: Samples of the formulation were subcutaneously injected into the rabbits. […] Samples of animal blood were taken from the rabbit's ear vein and analyzed for glucose concentration. Blood glucose concentration was measured with a glucose analyzer (One-Touch® Lifescan, Johnson & Johnson, Milpitas, Calif., USA) after proper calibration.
In comparative examples 23 and 24, two intact rabbits were not provided any insulin.

[3] = system: mice; experiment: Blood glucose in mice after injected insulin with or without crystallized dextran microparticles; format: in vivo; conditions: mouse
Experimental: The suspension was prepared as follows. 5.0 g of Dextran T10 (Pharmacia, Uppsala, Sweden) was dissolved in 20.0 g of water. The solution was filtered through a 0.22 μm filter (Millipore, Bedford, Mass.) and freeze dried. 3.0 g of the resulting powder was dissolved in 3.0 g of sterile water and placed in box at temperature 60° C. […] Finally, the produced crystallized dextran microparticles suspension was mixed with aqueous insulin solution and used in the experiment with mice. Samples of the suspension were introduced into the mice's legs and samples of animal blood were taken from each mouse's tail and analyzed for glucose concentrations.
In comparative example 15, no insulin was injected into the mouse.

[4] = system: mouse; experiment: Blood glucose in mouse after subcutaneous two phase composition or insulin alone; format: in vivo; conditions: 0.5 UI insulin subcutaneously
Experimental: 0.05 ml of the PEG and insulin solution is mixed with 0.15 ml of the microparticle and dextran suspension to form a two phase composition or mixture. 0.02 ml of the two phase mixture containing 0.5 UI of insulin is injected subcutaneously into mouse.

[5] = insulin 0.5 UI injected, listed as 16
[6] = insulin 0.5 UI injected, listed as 21

Monotard HM®: long-acting insulin of Novo Nordisk (40 UI/ml), injected subcutaneously alone at 8 UI
advertised duration of efficacy [1]: twenty four | glucose 0 hours ([2]; 0 hours): 5.4 mmol/L | glucose 0.5 hours ([2]; listed as 25): 5.8 mmol/L | glucose 0.5 hours ([2]; listed as 26): 5.0 mmol/L | glucose 1 hour ([2]; listed as 25): 3.8 mmol/L | glucose 1 hour ([2]; listed as 26): 4.2 mmol/L | glucose 1.5 hours ([2]; listed as 25): 3.2 mmol/L | glucose 1.5 hours ([2]; listed as 26): 2.9 mmol/L | glucose 2 hours ([2]; listed as 25): 2.4 mmol/L | glucose 2 hours ([2]; listed as 26): 2.5 mmol/L | glucose 16 hours ([2]; listed as 25): 3.9 mmol/L | glucose 16 hours ([2]; listed as 26): 4.0 mmol/L | glucose 24 hours ([2]; listed as 25): 5.6 mmol/L | glucose 24 hours ([2]; listed as 26): 5.1 mmol/L | glucose […] ([2]; listed as 25): 2.6 mmol/L | glucose […] ([2]; listed as 26): 2.4 mmol/L

Actrapid HM®: short-acting human recombinant insulin of Novo Nordisk, injected alone; Ex 21 is the average of 16 and 17
advertised duration of efficacy [1]: eight | change of blood glucose level from 120 minutes to 390 minutes after injection ([3]; insulin 0.5 UI): did substantially increase | glucose 0 min ([3]; insulin 0.5 UI injected): 8.1 mmol/L | glucose 0 min [3, 5]: 5.9 mmol/L | glucose 0 min [3, 6]: 7 mmol/L | glucose 15 min ([3]; insulin 0.5 UI injected): 3.8 mmol/L | glucose 15 min [3, 5]: 3.3 mmol/L | glucose 15 min [3, 6]: 3.6 mmol/L | glucose 30 min ([3]; insulin 0.5 UI injected): 2.8 mmol/L | glucose 30 min [3, 5]: 2.7 mmol/L | glucose 30 min [3, 6]: 2.8 mmol/L | glucose 45 min ([3]; insulin 0.5 UI injected): 1.9 mmol/L | glucose 45 min [3, 5]: 1.8 mmol/L | glucose 45 min [3, 6]: 1.9 mmol/L | glucose 120 min ([3]; insulin 0.5 UI injected, 120 min): 0.9 mmol/L | glucose 210 min ([3]; insulin 0.5 UI injected): 3.7 mmol/L | glucose 210 min [3, 5]: 3.5 mmol/L | glucose 210 min [3, 6]: 3.6 mmol/L | glucose 270 min ([3]; insulin 0.5 UI injected): 3.4 mmol/L | glucose 270 min [3, 5]: 3.0 mmol/L | glucose 270 min [3, 6]: 3.2 mmol/L | glucose 390 min ([3]; insulin 0.5 UI injected): 3.5 mmol/L | glucose 390 min [3, 5]: 3.2 mmol/L | glucose 390 min [3, 6]: 3.4 mmol/L | glucose 15 min ([4]; 15 min): 3.7 mmol/L | glucose 30 min ([4]; 30 min): 2.3 mmol/L | glucose 45 min ([4]; 45 min): 1.7 mmol/L | glucose 60 min ([4]; 60 min): 2.9 mmol/L | glucose 120 min ([4]; 120 min): 6.7 mmol/L
